Molecules are shown by their SMILES.

In one series the test system is HIV-1. To be noted: background statement; cited from earlier work.
The conditions of series [1]: average of five clinical studies (Table S4).
For series [2] the following is noted: cited from earlier work.
The conditions of series [3]: ref Yager et al. 50; cited from earlier work.
A short description of a further series: Population PK analysis. The note with it: for CLTFV: full model. In kind it is in vivo, human.
[4] abbreviates: full final model, bootstrap median.

For the compound `CC(C)OC(=O)[C@H](C)N[P@](=O)(CO[C@H](C)Cn1cnc2c(N)ncnc21)Oc1ccccc1` [tenofovir alafenamide], the “Potency relative to tenofovir disoproxil fumarate” value with HIV-1 is on record as 10 times. Moreover, the “Higher intracellular exposure in tenofovir diphosphate, TAF versus TDF” value in series [1] is “six-fold”. Moreover, the “Lower plasma levels of tenofovir under standard TAF versus TDF dosage” value in series [2] was 90%. In addition, the “Tenofovir diphosphate levels, TAF once every 3 days versus TDF every day” value in series [3] is on record as 2.6 times. The “Increase of relative bioavailability F (absorption of TAF) by cobicistat” value in “Population PK analysis” (TAF 10 mg with cobicistat versus 25 mg alone (F = 1)) was found to be 115%.

`C[C@H](Cn1cnc2c(N)ncnc21)OCP(=O)(O)O` [tenofovir]: the CLTFV in the series “Population PK analysis” (80-year-olds) is 36 L/h; in the series “Population PK analysis” (individuals with CLCR of 20 mL/min (stage 3 CKD)), 18 L/h; in “Population PK analysis” (normal kidney function) it was 42 L/h; in “Population PK analysis” (younger PLWH, median age 51 years), 42 L/h. Also, the “CLTFV lower than in normal kidney function” value in “Population PK analysis” (CLCR of 20 mL/min (stage 3 CKD) versus normal kidney function) is recorded as 57%. Moreover, the “CLTFV, apparent clearance of tenofovir” value is reported as 39.9 L/h in the series “Population PK analysis” (base model, ka fixed to 2 h−1); 42.3 L/h in the series “Population PK analysis” (full final model, bootstrap median (n = 2000 samples)); 42.2 L/h in “Population PK analysis” (full final model, estimate, CLCR-ref 100 mL/min, median age 51 years). Further, the “θAge, age effect on CLTFV” value was −0.242 in “Population PK analysis” (setting [4]) and −0.244 in the series “Population PK analysis” (full final model, estimate, Agemedian = 51 years). Further, the “θBlack or Hispano American, ethnicity effect on CLTFV” value in the series “Population PK analysis” (setting [4]) is listed as 0.120; in the series “Population PK analysis” (full final model, estimate), 0.119. For the same compound, in the series “Population PK analysis” (setting [4]), the “θCobicistat, effect of cobicistat on F” value was 1.16. Also, the “θPotent P-gp inhibitors, effect on CLTFV” value in the series “Population PK analysis” (setting [4]) is −0.119; in the series “Population PK analysis” (full final model, estimate) it was −0.121. The “VTFV, apparent volume of distribution of tenofovir” value in the series “Population PK analysis” (full final model, estimate, PLWH after oral TAF) is on record as 2390 L. Further, the Tmax in the series “Population PK analysis” (human, plasma, oral) came to 2.4 h. This compound also gave a half-life in “Population PK analysis” (human, plasma, oral) of 46 h. Further, the Vd in “Population PK analysis” (human, plasma, oral, VTFV, apparent volume of distribution of tenofovir, full final model, bootstrap median (n = 2000 samples)) is 2400 L.

Broadly, the Tmax is the time at which the peak concentration occurs. By half-life is commonly meant the time needed for the level to fall by half in the phase considered. Lower therefore signals fast loss.

The values above are taken from publication PMC10232258 (Journal of Antimicrobial Chemotherapy, 2023).
